Experimental data: patent publication US9249108B2, “Multicomponent system of rosuvastatin calcium salt and sorbitol” (BASF SE, priority 2010, dated 2016)

Key:
[1] = Water uptake under humidity; type: physicochemical
[2] = type: physicochemical
Protocol: Aqueous Solubility Determination: Approximately 0.5 mL of doubly distilled water is added to 16 to 39 mg of the substance to be measured. The resulting suspension is equilibrated in a temperature-controlled Eppendorf Thermomixer Comfort shaker for 2 h and 24 h at 25° C. at a shaking rate of 600 rpm. After 24 h the solid phase is recovered by filter centrifugation (0.10-μm PVDF membrane) and examined by XRPD. Concentrations in the filtrate after 2 h and 24 h (i.e., saturated solutions) are determined using HPLC. The pH of the saturated solution is determined with a Metrohm 713 pH meter.

Substance: Rosuvastatin hemicalcium salt/crystal form D (1:1 co-crystal with D-sorbitol)
- water uptake under humidity [1]: less prone to water uptake under humidity
- solubility [2]: as good as solid forms of Rosuvastatin calcium previously known
